Reference: DBAASP
≈ marks a conversion by molar mass, not a printed value. Blank lines part the entries; values can stand above or below the molecule they belong to.

Legend:
Experiment in all cases: ≥ marks a high value that may be exact or a test limit, other limits are often not marked, values filed in µg/mL are converted to µM
[1] = tested on: Lacticaseibacillus casei ATCC 4646
[2] = tested on: Streptococcus gordonii Challis DL1
[3] = tested on: Streptococcus mitis ATCC 903
Streptococcus mutans = tested on: Streptococcus mutans
[4] = tested on: Streptococcus sanguinis NY101
[5] = tested on: Veillonella atypica PK1910
[6] = tested on: Aeromonas hydrophila BCRC 13018
[7] = tested on: Enterococcus faecalis BCRC 10066
[8] = tested on: Pseudomonas aeruginosa ATCC 19660
[9] = tested on: Streptococcus agalactiae 819
[10] = tested on: Streptococcus agalactiae BCRC 10787
Vibrio alginolyticus = tested on: Vibrio alginolyticus
Vibrio vulnificus 204 = tested on: Vibrio vulnificus 204
Bacillus subtilis 168 = tested on: Bacillus subtilis 168
[11] = tested on: Bacillus subtilis KCTC 3068
Candida albicans CA14 = tested on: Candida albicans CA14
Escherichia coli K-12 = tested on: Escherichia coli K-12
[12] = tested on: Escherichia coli KCTC 1682
[13] = tested on: Malassezia sympodialis ATCC 42132
[14] = tested on: Pseudomonas aeruginosa KCTC 1637
[15] = tested on: Saccharomyces cerevisiae BY4741
[16] = tested on: Salmonella typhimurium KCTC 1926
[17] = tested on: Staphylococcus aureus KCTC 1621
[18] = tested on: Staphylococcus aureus RN4220
[19] = tested on: Staphylococcus epidermidis KCTC 1917
[20] = tested on: Micrococcus luteus BCRC 11034
Pseudomonas aeruginosa = tested on: Pseudomonas aeruginosa
[21] = tested on: Staphylococcus aureus BCRC 10780
Staphylococcus aureus = tested on: Staphylococcus aureus
[22] = tested on: Staphylococcus sp. BCRC 10451
Streptococcus agalactiae = tested on: Streptococcus agalactiae
[23] = tested on: Streptococcus pneumoniae BCRC 10794
[24] = tested on: Vibrio harveyi BCRC 13812
Bacillus anthracis = tested on: Bacillus anthracis
Bacillus cereus = tested on: Bacillus cereus
Escherichia coli = tested on: Escherichia coli

SMILES: CC(C)C[C@H](NC(=O)[C@H](CC(C)C)NC(=O)[C@H](Cc1cnc[nH]1)NC(=O)[C@H](Cc1cnc[nH]1)NC(=O)[C@H](CC(C)C)NC(=O)[C@H](CCCCN)NC(=O)[C@H](CCCCN)NC(=O)[C@H](CC(C)C)NC(=O)[C@H](CC(C)C)NC(=O)[C@H](CCCN=C(N)N)NC(=O)[C@H](CCCN=C(N)N)NC(=O)[C@H](Cc1c[nH]c2ccccc12)NC(=O)[C@@H](N)CCCN=C(N)N)C(=O)N[C@@H](Cc1cnc[nH]1)C(=O)NCC(=O)NCC(=O)NCC(=O)N[C@@H](Cc1ccccc1)C(=O)N[C@@H](CCCCN)C(=O)N[C@@H](CCCCN)C(=O)N[C@@H](Cc1ccccc1)C(=O)N[C@@H](Cc1c[nH]c2ccccc12)C(=O)N[C@@H](CCCCN)C(=O)N[C@@H](Cc1c[nH]c2ccccc12)C(=O)N[C@@H](Cc1ccccc1)C(=O)N[C@@H](CCCN=C(N)N)C(=O)N[C@@H](CCCN=C(N)N)C(=O)N[C@@H](Cc1ccccc1)C(N)=O [RWRRLLKKLHHLLHGGGFKKFWKWFRRF]
MIC [1]: 2.14 µM (≈ 8 µg/mL) | MIC [2]: 4.28 µM (≈ 16 µg/mL) | MIC [3]: 8.57 µM (≈ 32 µg/mL) | MIC (Streptococcus mutans): 1.51 µM (≈ 5.66 µg/mL) | MIC [4]: 4.28 µM (≈ 16 µg/mL) | MIC [5]: 2.14 µM (≈ 8 µg/mL)

SMILES: CC[C@H](C)[C@H](NC(=O)[C@H](CCCN=C(N)N)NC(=O)[C@H](CCCN=C(N)N)NC(=O)[C@H](CCCN=C(N)N)NC(=O)[C@H](CC(C)C)NC(=O)[C@@H](NC(=O)[C@@H](NC(=O)[C@H](CC(C)C)NC(=O)[C@@H](N)CC(C)C)[C@@H](C)CC)[C@@H](C)CC)C(=O)N[C@@H](CCCN=C(N)N)C(=O)N[C@@H](CCCCN)C(=O)N[C@@H](CCC(N)=O)C(=O)N[C@@H](C)C(=O)N[C@@H](Cc1cnc[nH]1)C(=O)N[C@@H](C)C(=O)N[C@@H](Cc1cnc[nH]1)C(=O)N[C@@H](CO)C(=O)N[C@@H](CCCCN)C(N)=O [LLIILRRRIRKQAHAHSK]
MIC (Bacillus subtilis 168): 10 µM (≈ 22.1 µg/mL) | MIC [11]: 4 µM (≈ 8.83 µg/mL) | MIC (Candida albicans CA14): 10 µM (≈ 22.1 µg/mL) | MIC (Escherichia coli K-12): 10 µM (≈ 22.1 µg/mL) | MIC [12]: 16 µM (≈ 35.3 µg/mL) | MIC [13]: 4.98 µM (≈ 11 µg/mL) | MIC [14]: 8 µM (≈ 17.7 µg/mL) | MIC [15]: 10 µM (≈ 22.1 µg/mL) | MIC [16]: 4 µM (≈ 8.83 µg/mL) | MIC [17]: 4 µM (≈ 8.83 µg/mL) | MIC [18]: 10 µM (≈ 22.1 µg/mL) | MIC [19]: 8 µM (≈ 17.7 µg/mL)

SMILES: CC(C)C[C@H](NC(=O)[C@H](Cc1ccccc1)NC(=O)[C@@H]1CCCN1C(=O)[C@H](Cc1ccccc1)NC(=O)[C@@H](NC(=O)[C@H](Cc1ccccc1)NC(=O)[C@H](CC(C)C)NC(=O)[C@@H](NC(=O)[C@H](CCCCN)NC(=O)[C@@H](NC(=O)[C@H](CCCCN)NC(=O)[C@H](CCCCN)NC(=O)[C@H](C)NC(=O)CNC(=O)[C@H](C)NC(=O)[C@@H](NC(=O)[C@H](CO)NC(=O)[C@@H](NC(=O)CN)C(C)C)C(C)C)C(C)C)C(C)C)C(C)C)C(=O)N[C@@H](Cc1ccccc1)C(=O)O [GVSVAGAKKVKVLFVFPFLF]
MIC (Bacillus anthracis): ≥ 119 µM | MIC (Bacillus cereus): ≥ 119 µM | MIC (Escherichia coli): > 119 µM | MIC (Staphylococcus aureus): > 119 µM

The remaining lines, values ahead:

MIC [6]: 7.82 µM (≈ 19.8 µg/mL) | MIC [7]: 3.91 µM (≈ 9.89 µg/mL) | MIC [8]: 7.82 µM (≈ 19.8 µg/mL) | MIC [9]: 3.91 µM (≈ 9.89 µg/mL) | MIC [10]: 0.123 µM (≈ 0.31 µg/mL) | MIC (Vibrio alginolyticus): 0.49 µM (≈ 1.24 µg/mL) | MIC (Vibrio vulnificus 204): 0.245 µM (≈ 0.62 µg/mL)
SMILES: CC[C@H](C)[C@H](NC(=O)[C@H](C)NC(=O)[C@H](CCCN=C(N)N)NC(=O)[C@H](Cc1cnc[nH]1)NC(=O)[C@@H](NC(=O)[C@H](C)NC(=O)[C@H](CCCN=C(N)N)NC(=O)[C@@H](NC(=O)CNC(=O)[C@H](Cc1cnc[nH]1)NC(=O)[C@H](CO)NC(=O)[C@@H](NC(=O)[C@H](Cc1c[nH]c2ccccc12)NC(=O)CNC(=O)[C@@H](NC(=O)[C@@H](NC(=O)[C@H](Cc1cnc[nH]1)NC(=O)[C@H](Cc1cnc[nH]1)NC(=O)[C@@H](NC(=O)[C@@H](N)Cc1ccccc1)[C@@H](C)CC)[C@@H](C)CC)[C@@H](C)CC)[C@@H](C)CC)C(C)C)[C@@H](C)CC)C(=O)N[C@@H](Cc1cnc[nH]1)C(=O)NCC(N)=O [FIHHIIGWISHGVRAIHRAIHG]

MIC [20]: 2.68 µM (≈ 6.36 µg/mL) | MIC (Pseudomonas aeruginosa): 5.35 µM (≈ 12.7 µg/mL) | MIC [21]: 21.4 µM (≈ 50.9 µg/mL) | MIC (Staphylococcus aureus): 5.35 µM (≈ 12.7 µg/mL) | MIC [22]: 2.68 µM (≈ 6.36 µg/mL) | MIC (Streptococcus agalactiae): ≥ 42.8 µM | MIC [23]: 21.4 µM (≈ 50.9 µg/mL) | MIC (Vibrio alginolyticus): 2.68 µM (≈ 6.36 µg/mL) | MIC [24]: 2.68 µM (≈ 6.36 µg/mL) | MIC (Vibrio vulnificus 204): 21.4 µM (≈ 50.9 µg/mL)
SMILES: CC[C@H](C)[C@H](NC(=O)[C@H](CCSC)NC(=O)[C@H](CCCCN)NC(=O)CNC(=O)[C@H](C)NC(=O)[C@H](Cc1cnc[nH]1)NC(=O)[C@H](Cc1ccccc1)NC(=O)[C@H](CC(C)C)NC(=O)CNC(=O)[C@H](CCCCN)NC(=O)[C@@H](NC(=O)[C@@H](NC(=O)[C@H](Cc1cnc[nH]1)NC(=O)[C@H](Cc1ccccc1)NC(=O)[C@@H](NC(=O)[C@H](Cc1ccccc1)NC(=O)CNC(C)=O)[C@@H](C)CC)[C@@H](C)CC)[C@@H](C)CC)C(=O)N[C@@H](Cc1cnc[nH]1)C(=O)NCC(=O)N[C@@H](CC(C)C)C(=O)N[C@H](C(N)=O)C(C)C [GFIFHIIKGLFHAGKMIHGLV]
